Earlier results on two molecules are cited in patent US12233067B2, “Topical treatment of vitiligo by a JAK inhibitor” (Incyte Corporation, priority 2019, dated 2025).

The test system of data set [1] is patient with both alopecia areata and vitiligo. The note with it: oral 20 mg BID for 20 weeks.
Data set [2] deals with patient with widespread and progressive vitiligo. The settings on record: oral 5 mg QD; after 5 months of treatment.

With `N#CC[C@H](C1CCCC1)n1cc(-c2ncnc3[nH]ccc23)cn1` [ruxolitinib, (R)-3-(4-(7H-pyrrolo[2,3-d]pyrimidin-4-yl)-1H-pyrazol-1-yl)-3-cyclopentylpropanenitrile], the clinical outcome in data set [1] is recorded as “hair regrowth as well as repigmentation of areas affected with vitiligo”.
Regarding `C[C@@H]1CCN(C(=O)CC#N)C[C@@H]1N(C)c1ncnc2[nH]ccc12` [tofacitinib], the clinical outcome in data set [2] is reported as “near complete repigmentation”.
